Experimental data as given in US5461154A, “Intermediate and process for making” (Eli Lilly and Company, priority 1994, dated 1995).

target: T1, HIV-1 protease (Human immunodeficiency virus type 1 group M subtype B, UniProt P04585); experiment: biochemical; settings: not given
T1 construct: Purified HIV-1 protease was obtained as described above; made in house; host or cells: E. coli K12 L507/pHP10D (NRRL B-18560)
Protocol: A culture of E. coli K12 L507/pHP10D was grown to mid-log phase at 32° C. in LB media containing 12.5 μg/mL tetracycline. The cultivation temperature was quickly elevated to 40° C. to induce gene expression, and the cells were allowed to grow for 2.5 hours at this temperature before the culture was quickly chilled on ice. The cells were centrifuged and the cell pellet was resuspended in 20 mL of 50 mmol MES buffer (pH 6.0) containing 1 mmol EDTA, 1 mmol DTT, 1 mmol PMSF and 10% glycerol ("Buffer A"). Cells were lysed by sonication using a Fischer Model 300 Dismembrator and a microtip probe. Following centrifugation at 27,000×g, the supernatant was diluted to a total volume of 60 mL with Buffer A and loaded onto a 2.0×19 cm QAE-Sepharose column (1 mL/min, 4° C.), that had been equilibrated in Buffer A. The column was washed isocratically for 180 min and then eluted with a gradient eluent of 0-1.0M aqueous sodium chloride in Buffer A over 120 min. Enzymatic activity was measured by HPLC using the synthetic peptide Ser-Gln-Asn-Tyr-Pro-Ile-Val as described in Margolin et al., Biochem. Biophys. Res. Common., 167, 554-560 (1990); the production of the p1 peptide (Ser-Gln-Asn-Tyr) was measured.
The active fractions were combined, adjusted to […] 1.2M in ammonium sulfate, and applied to a 2.0×18 cm hexyl agarose column that had been equilibrated in Buffer A containing 1.2M ammonium sulfate. The sample was loaded at a flow rate of 1 mL/min at 4° C., washed with the equilibration buffer for 240 min (1 mL/min) and then eluted using a reverse linear gradient of 1.2-0M ammonium sulfate in Buffer A for 120 min at the same flow rate. The column was then washed isocratically in Buffer A for 120 min.
The active fractions were combined, concentrated to 10 mL using an Amicon stirred cell with a YM-10 membrane and then applied to a MonoS cation exchange column (1.0×10 cm) that had been equilibrated in Buffer A. The sample was loaded at a flow rate of 1 mL/min at 25° C. After washing isocratically for 30 min, the protease was eluted using a linear gradient of 0-0.45M aqueous sodium chloride in Buffer A over 40 min. The column was washed isocratically in Buffer A containing 0.45M aqueous sodium chloride for 30 minutes.
The active fractions were combined and concentrated to 200 μL using an Amicon stirred cell and a YM-10 membrane and then the protease was applied to a Superose 6 size exclusion column equilibrated in Buffer A containing 0.1M aqueous sodium chloride.
E. Fluorescence HIV-1 Protease Inhibitor Assay
The following buffers and solutions are used in the Fluorescence HIV-1 Protease Inhibitor Assay:
To each well of a round bottom, 96-well plate is added 20 μL of the Enzyme Solution followed by 10 μL of the compound to be evaluated in a 20% aqueous dimethylsulfoxide solution. Purified HIV-1 protease was obtained as described above. The resulting solution is incubated for one hour at room temperature and then 20 μL of a solution containing the substrate, prepared above, in MES-ALB buffer (1.5 μL/mL) is added to each well. The solutions are then incubated for 16 hours at room temperature and then each well is diluted with 150 μL of MES-ALB buffer.
To each well of a second round bottom, 96-well Pandex plate is added 25 uL of the Avidin Coated Beads Solution. Then, to each well is added 25 μL of the diluted incubation solutions, prepared above. The solutions are mixed thoroughly and the plates are loaded into a Pandex® machine, washed, evacuated and read. Sample detection was performed by excitation at 485 nm, reading the resulting epifluorescence at 535 nm.

Row | Compound | IC50 [nM]
1 | Cc1c(O)cccc1C(=O)N[C@@H](Cc1ccccc1)[C@H](O)CN1CCC[C@H]1C(=O)NC(C)(C)C [Example 4, [2S-(2R*,2'S*,3'R*)]-1-[2'-Hydroxy-3'-phenylmethyl-4'-aza-5'-oxo-5'-(2"-methyl-3"-hydroxyphenyl)pentyl]pyrrolidine-2-N-t-butylcarboxamide] | 3050
2 | Cc1c(O)cccc1C(=O)N[C@@H](Cc1ccccc1)[C@H](O)CN1CCCC[C@H]1C(=O)NC(C)(C)C [Example 6, [2S-(2R*,2'S*,3'R*)]-1-[2'-Hydroxy-3'-phenylmethyl-4'-aza-5'-oxo-5'-(2"-methyl-3"-hydroxyphenyl)pentyl]piperidine-2-N-t-butylcarboxamide] | 1070

same assay, conditions: read-out: Fluorescence Assay IC50 (converted)

Row | Compound | IC50 [nM]
3 | CC(C)(C)NC(=O)[C@@H]1CN(Cc2cccnc2)CCN1C[C@@H](O)[C@H](CSc1ccccc1)NC(=O)c1cccc2ncccc12 [Example 34, [2S-(2R*,2'S*,3'S*)]-1-[2'-Hydroxy-3'-phenylthiomethyl-4'-aza-5'-oxo-5'-(quinolin-5"-yl)pentyl]-4-(pyrid-3'"-ylmethyl)piperazine-2-N-t-butylcarboxamide] | 7.18
4 | CC(C)(C)NC(=O)[C@@H]1C[C@@H]2CCCC[C@@H]2CN1C[C@@H](O)[C@H](Cc1ccccc1)NC(=O)c1c(Cl)ccc(O)c1Cl [Example 17, [3S-(3R*,4aR*,8aR*,2'S*,3'R*)]-2-[2'-Hydroxy-3'-phenylmethyl-4'-aza-5'-oxo-5'-(2",6"-dichloro-3"-hydroxyphenyl)pentyl]decahydroisoquinoline-3-N-t-butylcarboxamide] | 455
5 | Cc1ccc2ncccc2c1C(=O)N[C@@H](CSc1ccccc1)[C@H](O)CN1C[C@H]2CCCC[C@H]2C[C@H]1C(=O)NC(C)(C)C [Example 38] | 25.2
6 | Cc1cnccc1C(=O)N[C@@H](CSc1ccccc1)[C@H](O)CN1CCN(Cc2cccnc2)C[C@H]1C(=O)NC(C)(C)C [Example 35, [2S-(2R*,2'S*,3'S*)]-1-[2'-Hydroxy-3'-phenylthiomethyl-4'-aza-5'-oxo-5'-[3"-methyl-pyrid-4"-yl)]pentyl]-4-(pyrid-3'"-ylmethyl)piperazine-2-N-t-butylcarboxamide] | 53.7
7 | CC(C)(C)NC(=O)[C@@H]1C[C@@H]2CCCC[C@@H]2CN1C[C@@H](O)[C@H](Cc1ccccc1)NC(=O)c1cccc(Cl)c1Cl [Example 14, [3S-(3R*,4aR*,8aR*,2'S*,3R*)]-2-[2'-Hydroxy-3'-phenylmethyl-4'-aza-5'-oxo-5'-(2",3"-dichlorophenyl)pentyl]decahydroisoquinoline-3-N-t-butylcarboxamide] | 176
8 | Cc1c(C(=O)N[C@@H](Cc2ccccc2)[C@H](O)CN2C[C@H]3CCCC[C@H]3C[C@H]2C(=O)NC(C)(C)C)cc[nH]c1=O [Example 16, [3S-(3R*,4aR*,8aR*,2'S*,3'R*)]-2-[2'-Hydroxy-3-phenylmethyl-4'-aza-5'-oxo-5'-(2"-oxo-3"-methyl-pyrid-4"-yl)pentyl]decahydroisoquinoline-3-N-t-butylcarboxamide] | 613

same assay, conditions: read-out: Fluorescence Assay IC50; […]; room temperature, 16 hours with substrate

Row | Compound | IC50 [nM]
9 | Cc1c(NS(C)(=O)=O)cccc1C(=O)N[C@@H](Cc1ccccc1)[C@H](O)CN1C[C@H]2CCCC[C@H]2C[C@H]1C(=O)NC(C)(C)C [Example 36, [3S-(3R*,4aR*,8aR*,2'S*,3'S*)]-2-[2'-Hydroxy-3'-phenylmethyl-4'-aza-5'-oxo-5'-[2"-methyl-3"-N-(methylsulfonyl)amino-phenyl)]pentyl]decahydroisoquinoline-3-N-t-butylcarboxamide] | 101
